Columns and labels:
Assay in all cases: relative viability (nuclei count vs DMSO), 5 days (fraction); higher = more cells survive
NCI-H1944 = test system: NCI-H1944
Outline: (§1)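 Relative viability was taken as the ratio of nuclei in treated wells to nuclei in vehicle wells. Lung cancer cell lines in 1536-well plates received compounds by pin tool one day after seeding, either one drug alone or a fixed anchor-drug dose plus five library-drug doses (not always all listed) in √10 steps. Nuclei were counted on 4× images after 5 days of treatment, and values are medians of duplicate plates.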

EMC-BAC-2 = test system: EMC-BAC-2
Outline: as §1

LK-2 = test system: LK-2
Outline: as §1

LU99A = test system: LU99A
Outline: as §1

LXF-289 = test system: LXF-289
Outline: as §1

HARA = test system: HARA
Outline: as §1

SW 1573 = test system: SW 1573
Outline: as §1

PC-3 [JPC-3] = test system: PC-3 [JPC-3]
Outline: as §1

SK-MES-1 = test system: SK-MES-1
Outline: as §1

A-427 = test system: A-427
Outline: as §1

NCI-H3122 = test system: NCI-H3122
Outline: as §1

NCI-H2228 = test system: NCI-H2228
Outline: as §1

NCI-H1792 = test system: NCI-H1792
Outline: as §1

NCI-H2170 = test system: NCI-H2170
Outline: as §1

HOP-62 = test system: HOP-62
Outline: as §1

NCI-H1993 = test system: NCI-H1993
Outline: as §1

COR-L23 = test system: COR-L23
Outline: as §1

SK-LU-1 = test system: SK-LU-1
Outline: as §1

NCI-H596 = test system: NCI-H596
Outline: as §1

NCI-H1793 = test system: NCI-H1793
Outline: as §1

NCI-H2009 = test system: NCI-H2009
Outline: as §1

NCI-H727 = test system: NCI-H727
Outline: as §1

ABC-1 = test system: ABC-1
Outline: as §1

Compound: COc1cc(N2CCC(C(N)=O)CC2)ccc1Nc1nc(N)c(Cl)c(Nc2ccccc2S(=O)(=O)C(C)C)n1 [HG-5-88-01] + CS(=O)(=O)N1CCN(Cc2cc3nc(-c4cccc5[nH]ncc45)nc(N4CCOCC4)c3s2)CC1 [Pictilisib] (partner 1 µM)
- relative viability (NCI-H1944; first compound 0.04 µM): 0.319
- relative viability (NCI-H1944; first compound 0.1265 µM): 0.341
- relative viability (NCI-H1944; first compound 0.4 µM): 0.336
- relative viability (NCI-H1944; first compound 1.265 µM): 0.334
- relative viability (NCI-H1944; first compound 4 µM): 0.352
- relative viability (EMC-BAC-2; first compound 0.04 µM): 0.531
- relative viability (EMC-BAC-2; first compound 0.1265 µM): 0.509
- relative viability (EMC-BAC-2; first compound 0.4 µM): 0.495
- relative viability (EMC-BAC-2; first compound 1.265 µM): 0.554
- relative viability (EMC-BAC-2; first compound 4 µM): 0.505
- relative viability (LK-2; first compound 0.04 µM): 0.632
- relative viability (LK-2; first compound 0.1265 µM): 0.522
- relative viability (LK-2; first compound 0.4 µM): 0.546
- relative viability (LK-2; first compound 1.265 µM): 0.386
- relative viability (LK-2; first compound 4 µM): 0.614
- relative viability (LU99A; first compound 0.04 µM): 0.31
- relative viability (LU99A; first compound 0.1265 µM): 0.315
- relative viability (LU99A; first compound 0.4 µM): 0.303
- relative viability (LU99A; first compound 1.265 µM): 0.318
- relative viability (LU99A; first compound 4 µM): 0.215
- relative viability (LXF-289; first compound 0.04 µM): 0.819
- relative viability (LXF-289; first compound 0.1265 µM): 0.796
- relative viability (LXF-289; first compound 0.4 µM): 0.821
- relative viability (LXF-289; first compound 1.265 µM): 0.81
- relative viability (LXF-289; first compound 4 µM): 0.736
- relative viability (HARA; first compound 0.04 µM): 0.438
- relative viability (HARA; first compound 0.1265 µM): 0.358
- relative viability (HARA; first compound 0.4 µM): 0.414
- relative viability (HARA; first compound 1.265 µM): 0.411
- relative viability (HARA; first compound 4 µM): 0.301
- relative viability (SW 1573; first compound 0.04 µM): 0.422
- relative viability (SW 1573; first compound 0.1265 µM): 0.563
- relative viability (SW 1573; first compound 0.4 µM): 0.445
- relative viability (SW 1573; first compound 1.265 µM): 0.392
- relative viability (SW 1573; first compound 4 µM): 0.489
- relative viability (PC-3 [JPC-3]; first compound 0.04 µM): 0.69
- relative viability (PC-3 [JPC-3]; first compound 0.1265 µM): 0.702
- relative viability (PC-3 [JPC-3]; first compound 0.4 µM): 0.636
- relative viability (PC-3 [JPC-3]; first compound 1.265 µM): 0.494
- relative viability (PC-3 [JPC-3]; first compound 4 µM): 0.266
- relative viability (SK-MES-1; first compound 0.04 µM): 0.37
- relative viability (SK-MES-1; first compound 0.1265 µM): 0.373
- relative viability (SK-MES-1; first compound 0.4 µM): 0.354
- relative viability (SK-MES-1; first compound 1.265 µM): 0.282
- relative viability (SK-MES-1; first compound 4 µM): 0.299
- relative viability (A-427; first compound 0.04 µM): 0.716
- relative viability (A-427; first compound 0.1265 µM): 0.812
- relative viability (A-427; first compound 0.4 µM): 0.706
- relative viability (A-427; first compound 1.265 µM): 0.914
- relative viability (A-427; first compound 4 µM): 0.442
- relative viability (NCI-H3122; first compound 0.04 µM): 0.252
- relative viability (NCI-H3122; first compound 0.1265 µM): 0.174
- relative viability (NCI-H3122; first compound 0.4 µM): 0.2
- relative viability (NCI-H3122; first compound 1.265 µM): 0.172
- relative viability (NCI-H3122; first compound 4 µM): 0.173
- relative viability (NCI-H2228; first compound 0.04 µM): 0.215
- relative viability (NCI-H2228; first compound 0.1265 µM): 0.177
- relative viability (NCI-H2228; first compound 0.4 µM): 0.248
- relative viability (NCI-H2228; first compound 1.265 µM): 0.144
- relative viability (NCI-H2228; first compound 4 µM): 0.157
- relative viability (NCI-H1792; first compound 0.04 µM): 0.372
- relative viability (NCI-H1792; first compound 0.1265 µM): 0.272
- relative viability (NCI-H1792; first compound 0.4 µM): 0.313
- relative viability (NCI-H1792; first compound 1.265 µM): 0.253
- relative viability (NCI-H1792; first compound 4 µM): 0.297
- relative viability (NCI-H2170; first compound 0.04 µM): 0.269
- relative viability (NCI-H2170; first compound 0.1265 µM): 0.33
- relative viability (NCI-H2170; first compound 0.4 µM): 0.28
- relative viability (NCI-H2170; first compound 1.265 µM): 0.26
- relative viability (NCI-H2170; first compound 4 µM): 0.261
- relative viability (HOP-62; first compound 0.04 µM): 0.493
- relative viability (HOP-62; first compound 0.1265 µM): 0.765
- relative viability (HOP-62; first compound 0.4 µM): 0.827
- relative viability (HOP-62; first compound 1.265 µM): 0.892
- relative viability (HOP-62; first compound 4 µM): 0.936
- relative viability (NCI-H1993; first compound 0.04 µM): 0.689
- relative viability (NCI-H1993; first compound 0.1265 µM): 0.829
- relative viability (NCI-H1993; first compound 0.4 µM): 0.606
- relative viability (NCI-H1993; first compound 1.265 µM): 1.04
- relative viability (NCI-H1993; first compound 4 µM): 0.873
- relative viability (COR-L23; first compound 0.04 µM): 0.629
- relative viability (COR-L23; first compound 0.1265 µM): 0.725
- relative viability (COR-L23; first compound 0.4 µM): 0.608
- relative viability (COR-L23; first compound 1.265 µM): 0.371
- relative viability (COR-L23; first compound 4 µM): 0.353
- relative viability (SK-LU-1; first compound 0.04 µM): 0.539
- relative viability (SK-LU-1; first compound 0.1265 µM): 0.572
- relative viability (SK-LU-1; first compound 0.4 µM): 0.539
- relative viability (SK-LU-1; first compound 1.265 µM): 0.594
- relative viability (SK-LU-1; first compound 4 µM): 0.6
- relative viability (NCI-H596; first compound 0.04 µM): 0.447
- relative viability (NCI-H596; first compound 0.1265 µM): 0.42
- relative viability (NCI-H596; first compound 0.4 µM): 0.382
- relative viability (NCI-H596; first compound 1.265 µM): 0.414
- relative viability (NCI-H596; first compound 4 µM): 0.312
- relative viability (NCI-H1793; first compound 0.1265 µM): 0.336
- relative viability (NCI-H1793; first compound 0.4 µM): 0.3
- relative viability (NCI-H1793; first compound 1.265 µM): 0.426
- relative viability (NCI-H1793; first compound 4 µM): 0.308
- relative viability (NCI-H2009; first compound 0.04 µM): 0.771
- relative viability (NCI-H2009; first compound 0.1265 µM): 0.882
- relative viability (NCI-H2009; first compound 0.4 µM): 0.693
- relative viability (NCI-H2009; first compound 1.265 µM): 0.793
- relative viability (NCI-H2009; first compound 4 µM): 0.631
- relative viability (NCI-H727; first compound 0.04 µM): 0.486
- relative viability (NCI-H727; first compound 0.1265 µM): 0.448
- relative viability (NCI-H727; first compound 0.4 µM): 0.24
- relative viability (NCI-H727; first compound 1.265 µM): 0.261
- relative viability (NCI-H727; first compound 4 µM): 0.249
- relative viability (ABC-1; first compound 0.04 µM): 0.614
- relative viability (ABC-1; first compound 0.1265 µM): 0.829
- relative viability (ABC-1; first compound 0.4 µM): 0.679
- relative viability (ABC-1; first compound 1.265 µM): 0.681
- relative viability (ABC-1; first compound 4 µM): 0.522

Reference: the supplement of paper PMC10307832
